Assay results taken from ChEMBL document CHEMBL3244111, “Nitrones. 7. alpha-Quinoxalinyl-N-substituted nitrone 1,4-dioxides” (J Med Chem, 1977).
Calls of active or inactive are those of the source. The calls are words filed in the database; no cut-off is given here.

Legend:
[1] = Acute toxicity in sc dosed mouse administered as single dose; type: organism-based; conditions: in vivo
[2] = test system: Staphylococcus aureus; assay: In vivo antibacterial activity against Staphylococcus aureus infected in CF1 mouse assessed as protection against bacterial infection administered as two doses; type: functional
[3] = test system: Pseudomonas aeruginosa; assay: In vivo antibacterial activity against Pseudomonas aeruginosa infected in sc dosed CF1 mouse assessed as protection against bacterial infection administered as two doses; type: functional
[4] = test system: Salmonella enteritidis; assay: In vivo antibacterial activity against Salmonella enteriditis infected in CF1 mouse assessed as protection against bacterial infection administered as two doses; type: functional, Salmonella enterica subsp. enterica serovar Enteritidis; conditions: Salmonella enterica
[5] = test system: Salmonella; assay: In vivo antibacterial activity against Salmonella typhosa infected in CF1 mouse assessed as protection against bacterial infection administered as two doses; type: functional
[6] = test system: Proteus mirabilis; assay: In vivo antibacterial activity against Proteus mirabilis infected in CF1 mouse assessed as protection against bacterial infection administered as two doses; type: functional
[7] = test system: Listeria monocytogenes; assay: In vivo antibacterial activity against Listeria monocytogenes infected in CF1 mouse assessed as protection against bacterial infection administered as two doses; type: functional
[8] = test system: Escherichia coli; assay: In vivo antibacterial activity against Escherichia coli infected in CF1 mouse assessed as protection against bacterial infection administered as two doses; type: functional
[9] = test system: Histomonas meleagridis; assay: In vivo antiprotozoal activity against Histomonas meleagridis infected in turkey; type: functional, organism-based
[10] = test system: Shigella flexneri; assay: In vivo antibacterial activity against Shigella paradysenteriae infected in CF1 mouse assessed as protection against bacterial infection administered as two doses; type: functional
[11] = test system: Streptococcus pneumoniae; assay: In vivo antibacterial activity against Diplococcus pneumoniae I infected in CF1 mouse assessed as protection against bacterial infection administered as two doses; type: functional
[12] = Acute toxicity in po dosed mouse administered as single dose; type: organism-based; conditions: in vivo
[13] = test system: Salmonella typhimurium; assay: In vivo antibacterial activity against Salmonella typhimurium infected in CF1 mouse assessed as protection against bacterial infection administered as two doses; type: functional, Salmonella enterica subsp. enterica serovar Typhimurium; conditions: Salmonella enterica
[14] = test system: Salmonella; assay: In vivo antibacterial activity against Salmonella schottmuelleri infected in CF1 mouse assessed as protection against bacterial infection administered as two doses; type: functional
[15] = test system: Klebsiella pneumoniae; assay: In vivo antibacterial activity against Klebsiella pneumoniae infected in CF1 mouse assessed as protection against bacterial infection administered as two doses; type: functional
[16] = test system: Streptococcus pyogenes; assay: In vivo antibacterial activity against Streptococcus pyogenes infected in CF1 mouse assessed as protection against bacterial infection administered as two doses; type: functional
[17] = test system: Pasteurella multocida; assay: In vivo antibacterial activity against Pasteurella multocida infected in CF1 mouse assessed as protection against bacterial infection administered as two doses; type: functional
[18] = Acute toxicity in ip dosed mouse administered as single dose; type: organism-based; conditions: in vivo
[19] = test system: Shigella dysenteriae; assay: In vivo antibacterial activity against Shigella dysenteriae infected in CF1 mouse assessed as protection against bacterial infection administered as two doses; type: functional
[20] = test system: Proteus vulgaris; assay: In vivo antibacterial activity against Proteus vulgaris infected in CF1 mouse assessed as protection against bacterial infection administered as two doses; type: functional

| Compound | LD50 [1] | ED50 [2] | ED50 [3] | ED50 [4] | ED50 [5] | ED50 [6] | ED50 [7] | ED50 [8] | Activity [9] | ED50 [10] | ED50 [11] | LD50 [12] | ED50 [13] | ED50 [14] | ED50 [15] | ED50 [16] | ED50 [17] | LD50 [18] | ED50 [19] | ED50 [20] |
| --- | --- | --- | --- | --- | --- | --- | --- | --- | --- | --- | --- | --- | --- | --- | --- | --- | --- | --- | --- | --- |
| O=[N+]([O-])c1ccc(/C=[N+](/[O-])CCO)o1 [NIFURATRONE] | 417 mg/kg | 26 mg/kg | > 100 mg/kg | 47 mg/kg | 31 mg/kg | 53 mg/kg | > 100 mg/kg | 27 mg/kg | inactive | 46 mg/kg | > 100 mg/kg | 518 mg/kg | 30 mg/kg | 8 mg/kg | 39 mg/kg | 47 mg/kg | < 50 mg/kg |  |  |  |
| O=C(N[C@H](CO)[C@H](O)c1ccc([N+](=O)[O-])cc1)C(Cl)Cl [CHLORAMPHENICOL] |  | 27 mg/kg |  | 29 mg/kg | 24 mg/kg | 52 mg/kg | > 100 mg/kg | 41 mg/kg | inactive |  |  | 2640 mg/kg | 16 mg/kg | 9 mg/kg | 20 mg/kg | 27 mg/kg | 11 mg/kg | 1320 mg/kg | 61 mg/kg | > 100 mg/kg |
| Cc1c(/C=[N+](\C)[O-])[n+]([O-])c2ccccc2[n+]1[O-] | 596 mg/kg | 74 mg/kg | > 250 mg/kg | 2 mg/kg | 10 mg/kg | 18 mg/kg | > 100 mg/kg | 10 mg/kg | inactive | 13 mg/kg | 32 mg/kg | > 1000 mg/kg | 16 mg/kg | 1.5 mg/kg | 6 mg/kg | 35 mg/kg | 7 mg/kg | 596 mg/kg | 62 mg/kg | 35 mg/kg |
